One series relates to Smn mRNA in NSC-34 cells. More on the design: method as in PMID 18205293. As to conditions: cited from earlier work.
The test system of series [1] is Renilla luciferase driven by the CMV promoter. Put plainly: Reporter gene assay, CMV-driven Renilla luciferase. The series is classed as cell-based. As to conditions: 24 hrs. The protocol:
(§1) The SMN2 reporter cell line was cultured in high-glucose DMEM supplemented with 10% (v/v) fetal bovine serum (FBS) and 1X Penicillin/Streptomycin. Reporter cells media was supplemented with hygromycin during maintenance. All cells were maintained at 37°C and […]. After seeding in 96-well white tissue culture plates at 25,000 per well, cells were incubated overnight before being exposed to different doses of compounds or DMSO for 24 hrs. The final DMSO concentration was kept constant at 0.1% (v/v). Firefly and renilla luciferase expression were assayed with DualGlo (Promega E2920) and measured on a PHERAstar FS microplate reader (BMG Labtech). Relative light units are normalized to DMSO control and expressed as a percentage.
For orientation: Reporter assays use an easily measured gene product as a stand-in for the process of interest.

The conditions of series [2]: cited from earlier work.
Series [3] concerns SMN protein in SMA patient fibroblasts. The arrangement: method as in PMID 18205293. As to conditions: cited from earlier work.
The subject of another series is SMA Δ7 mice. As to conditions: SMAΔ7 mice; cited from earlier work.
Series [4] concerns firefly luciferase driven by the SMN2 promoter and SMN2 splicing cassette. Kind of series: SMN2 reporter gene assay, firefly luciferase. The series is classed as cell-based. As to conditions: 24 hrs. The protocol:
as §1

Series [5] relates to Smn protein. Kind of series: Smn protein in mouse tissues by Western blot. Format: in vivo. As to conditions: 2B/- SMA mice. From the text:
(§2) At P1, pups were counted.

The nature of series [6]: Single dose PK in P13 2B/- SMA and 2B/+ littermate pups.
From the text: Personnel conducting studies followed the approved standard operating procedures for daily monitoring, dosing, weaning and euthanasia according to the approved study protocol. […] Line maintenance was maintained by interbreeding of the congenic line and every 4th generation mice were outbred to wild type FBV/N mice (jax # 001800) to reduce the possibility of new mutations within the line. Smn 2B mice were internally developed and maintained in the DiDonato laboratory. To generate the SMA mice used in this study an intercross between Smn 2B/2B and Smn +/- mice was performed. This generated litters in which 50% of the offspring were control (2B/+) and 50% SMA (2B/-). The day of birth was considered to be P0. If pups were born after 3pm, the following day was considered P0. At P1, pups were counted. If greater than 10 pups to a cage, pups were randomly chosen and moved to another cage to increase litter size, culled to reduce litter size or genotyped at P1 and culled at P2 to reduce litter size to 10 or fewer pups. Thereafter, no culling of pups was performed for drug studies. Individual mice were genotyped from DNA obtained from tail snips by polymerase chain reaction (PCR). All mice were weaned at P21 and separated into male and female cages. […] For the PK single dose studies a single ip injection was used. For survival studies drug level and tissue harvest mice from P4-P16 treatment, mice were treated twice daily (b.i.d.) via intraperitoneal (i.p.) injection starting on P4 and continuing until P20 or the sacrifice of the animals, whichever occurred sooner. The dosing interval was 12 hours ± 90 minutes. Body weights were recorded daily in the AM and dosing volume was adjusted accordingly. […] At P4, litters were randomized across treatment arms to uniformly control litter size and litter weight as appropriate. Litter size entry was a minimum of 6 and maximum of 10. Litters with average weights at P4 that were greater or less than two stand deviations below the average P4 litter weight of untreated litters were also excluded from study entry. […]
For series [7], the system named is 2B/- SMA mice. Kind of series: Survival and body weight study in 2B/- SMA mice. Format: in vivo, mouse. As to conditions: b.i.d. i.p. P4-P20, RG3039 6 mg/kg, PF-06738066 10 mg/kg, P < 0.0001 Mantel-Cox or Gehan-Breslow-Wilcoxon.
Series [8] can be described thus: Plasma drug levels after P4-P16 dosing. As to conditions: FVB/N background, mouse, ip.
From the text: Personnel conducting studies followed the approved standard operating procedures for daily monitoring, dosing, weaning and euthanasia according to the approved study protocol. […] Line maintenance was maintained by interbreeding of the congenic line and every 4th generation mice were outbred to wild type FBV/N mice (jax # 001800) to reduce the possibility of new mutations within the line. Smn 2B mice were internally developed and maintained in the DiDonato laboratory. To generate the SMA mice used in this study an intercross between Smn 2B/2B and Smn +/- mice was performed. This generated litters in which 50% of the offspring were control (2B/+) and 50% SMA (2B/-). The day of birth was considered to be P0. If pups were born after 3pm, the following day was considered P0. At P1, pups were counted. If greater than 10 pups to a cage, pups were randomly chosen and moved to another cage to increase litter size, culled to reduce litter size or genotyped at P1 and culled at P2 to reduce litter size to 10 or fewer pups. Thereafter, no culling of pups was performed for drug studies. Individual mice were genotyped from DNA obtained from tail snips by polymerase chain reaction (PCR). All mice were weaned at P21 and separated into male and female cages. […] For the PK single dose studies a single ip injection was used. […] Body weights were recorded daily in the AM and dosing volume was adjusted accordingly. […]
A short description of series [9]: Single dose PK in adult FVB/N wild type mice.
From the text: Personnel conducting studies followed the approved standard operating procedures for daily monitoring, dosing, weaning and euthanasia according to the approved study protocol. […] Line maintenance was maintained by interbreeding of the congenic line and every 4th generation mice were outbred to wild type FBV/N mice (jax # 001800) to reduce the possibility of new mutations within the line. Smn 2B mice were internally developed and maintained in the DiDonato laboratory. To generate the SMA mice used in this study an intercross between Smn 2B/2B and Smn +/- mice was performed. This generated litters in which 50% of the offspring were control (2B/+) and 50% SMA (2B/-). The day of birth was considered to be P0. If pups were born after 3pm, the following day was considered P0. At P1, pups were counted. If greater than 10 pups to a cage, pups were randomly chosen and moved to another cage to increase litter size, culled to reduce litter size or genotyped at P1 and culled at P2 to reduce litter size to 10 or fewer pups. Thereafter, no culling of pups was performed for drug studies. Individual mice were genotyped from DNA obtained from tail snips by polymerase chain reaction (PCR). All mice were weaned at P21 and separated into male and female cages. […] For the PK single dose studies a single ip injection was used. For survival studies drug level and tissue harvest mice from P4-P16 treatment, mice were treated twice daily (b.i.d.) via intraperitoneal (i.p.) injection starting on P4 and continuing until P20 or the sacrifice of the animals, whichever occurred sooner. The dosing interval was 12 hours ± 90 minutes. Body weights were recorded daily in the AM and dosing volume was adjusted accordingly. […] At P4, litters were randomized across treatment arms to uniformly control litter size and litter weight as appropriate. Litter size entry was a minimum of 6 and maximum of 10. Litters with average weights at P4 that were greater or less than two stand deviations below the average P4 litter weight of untreated litters were also excluded from study entry. All mice within a litter were dosed with only one test article or received no dose at all. Dosers/phenotypic testers were blinded to the test articles being administered. […] Mice meeting humane functional endpoints (30 percent loss of weight for two consecutive days and/or an inability to right within 1 minute or obvious state of distress) were immediately euthanized with CO2 followed by cervical dislocation as a secondary measure. […] Those not used for analyses were also euthanized using CO2 inhalation followed by cervical dislocation as a secondary measure.
Series [10] relates to 2B/- SMA mice. Put plainly: Combined 55° negative geotaxis/climb test in 2B/- SMA mice. Format: in vivo, mouse.
Series [11] deals with Smn transcripts in spinal cord, skeletal muscle, liver. Kind of series: Smn transcripts in mouse tissues by ddPCR. Format: in vivo.
From the text: as §2

The test system of series [12] is SMN transcripts in SMA-derived lymphoblasts. Kind of series: SMN transcripts by ddPCR in SMA-derived lymphoblasts. Format: cell-based, human. As to conditions: active DAQ-DcpSi vs 7-methyl analogues.
A further series concerns N2a cells. Kind of series: RNA-Seq (polyA RNA) of N2a neuroblastoma cells. The series is classed as cell-based, mouse. As to conditions: 1 μM. The protocol:
Cells were then pelleted and lysed in RLT and the RNA was purified according to the protocol for the Qiagen miRNeasy kit to separate and enrich small RNA and large (>200 nt) fractions separately. […] RNA quality was also validated using qPCR for DcpS responsive genes. RNA fractions were used for cDNA library preparation which was performed using Truseq mRNA v2 reagents or TailorMix miRNA reagents (RS-122-2101 Illumina, San Diego CA, USA and TM302 Seqmatic, Fremont CA, USA). Libraries were run on a Nextseq 500 (Illumina) using a paired-end run (2x75bp) generating ~60 million reads per library for the mRNA-seq and 1x75bp generating ~5 million reads per library for the miRNA-seq. Demultiplexing, alignment, and differential analysis for the mRNA-seq were performed as described below. For the miRNA alignment, briefly the sequences between 16 and 35 nucleotides with average phred score ≥ 30 were retained for analysis. The reads were first mapped to mouse miRNAs using Bowtie without allowing for mismatches. Instead of discarding the remaining reads, we explored the possibilities of RNA editing to include potential isomiRs. These reads were mapped to miRNAs that have at most 1 base mismatch, a substitution at the 5’ or 3’ ends, or have 1 or 2 extra bases at either ends. Although 1 base mismatch would include 1 base substitution/deletion/addition at the ends, we made sure that 1 base mismatch was inside the miRNA and that all categories were mutually exclusive. Reads mapping to protein coding exons and other small RNAs were removed prior to mapping to miRNAs. Reads that uniquely mapped to miRNAs were considered and were profiled as: 1) identical to miRNAs, 2) perfect match to miRNAs but are of shorter length (no more than 5 bases short), 3) mapping to miRNAs with 1 substitution, 1 or 2 extra bases at 3’ and 5’ ends and with those with at most 1 mismatch (occurring inside the sequence and not on ends), 4) mapping to the precursor miRNA. Thus, steps 2–4 constitute “IsomiRs”-alternative forms of the mature miRNAs. We merged the counts of reads identical to a miR and those mapping to isomeric forms as they are found to have identical/very similar functions. The unaligned reads were mapped to the mouse genome and an internally developed database of rRNAs from bacteria, fungi, plant and eukaryotes to detect presence of contaminants. For differential analysis of miRNAs, only those with counts of ≥5 in at least 1/3rd samples (treatment vs control) were considered for analysis. The counts were normalized and analyzed using EdgeR [19] packages in R-Bioconductor. The P-values were corrected by FDR for multiple testing and miRNAs with FDR ≤15% and |FC|>1.5 were considered to be differentially expressed.
The differentially regulated gene lists for both the spinal cord mRNA-seq and the N2a mRNA-seq results with a corrected P-value less than 0.05 were loaded into IPA and analyzed against the Ingenuity Knowledgebase, Ingenuity Expert Information, and with experimentally observed confidence.

The target of the next series is T1, recombinant human DcpS (Homo sapiens, UniProt Q96C86).
T1 sequence (Q96C86 1-337): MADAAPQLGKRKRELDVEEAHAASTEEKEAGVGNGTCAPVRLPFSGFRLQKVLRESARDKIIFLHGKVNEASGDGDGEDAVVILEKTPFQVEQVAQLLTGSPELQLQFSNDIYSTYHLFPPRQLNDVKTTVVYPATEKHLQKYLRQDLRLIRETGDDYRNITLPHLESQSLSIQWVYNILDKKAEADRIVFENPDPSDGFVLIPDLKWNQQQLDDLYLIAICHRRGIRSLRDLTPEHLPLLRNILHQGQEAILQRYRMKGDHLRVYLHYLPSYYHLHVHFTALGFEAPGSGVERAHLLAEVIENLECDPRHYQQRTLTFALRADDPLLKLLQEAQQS
Put plainly: in vitro DcpS inhibition assay (m7GpppA-biotin substrate, ADP-biotin detection). Format: biochemical. As to conditions: mean of two or more independent assays.

Series [13] deals with SMN protein. Put plainly: SMN protein by Western blot in SMA cells (fibroblasts, lymphoblasts, iPS-derived neural progenitor cells). Format: cell-based, human. As to conditions: 24 hours to 7 days. The protocol: Lysates were incubated at 95°C for 5 minutes and cleared at 14,000 RPM for 15 minutes. Cleared lysates were quantified by BCA assay. A total of 5 μg of each lysate was mixed with NuPage LDS sample buffer with […] and loaded and separated on a NuPage 10% Bis-Tris gel. Proteins were transferred to 0.2 micron nitrocellulose using the BioRad Turbo Transfer system.
For orientation: A western blot detects proteins with antibodies after separation by electrophoresis.

[14] abbreviates: adult FVB/N mice, 30 mg/kg i.p.
Setting [15] is: P16, Fisher's exact test P-value = 0.0708.

The structures appear in SMILES notation.

Method for recombinant human DcpS: Incubations were initiated by the addition of 50 nM m7GpppA-biotin substrate and proceeded for 45 min at room temperature before being terminated by the addition of 1 μM D156844 [11]. Production of ADP-biotin was quantitated by transferring 18 μl of the quenched reaction (or biotin-ADP standard) to a streptavidin-coated plate (Pierce), incubating for 2 hours then washing 3 times followed by detection using an anti-ADP mouse antibody (Bellbrook lab) and an HRP-conjugated Goat anti-mouse IgG (Invitrogen).

With `Nc1nc(N)c2c(OCC3CCN(Cc4ccccc4F)CC3)cccc2n1` [D156844], the “endogenous mouse Smn mRNA” value in the series on Smn mRNA in NSC-34 cells is given as “elevated the endogenous mouse Smn mRNA”. The “effect on CMV-driven Renilla luciferase activity” value in series [1] is listed as “strong effect”. Moreover, in series [2], the “physicochemical character (lipophilicity, basicity)” value was “highly lipophilic and dibasic”. In series [3], the SMN protein levels result is “raised SMN protein levels” and the “numbers of SMN-positive nuclear foci (gems)” value is recorded as “dramatically increased”. In addition, in the series on SMA Δ7 mice, the “SMN2 or SMNΔ7 transcript levels or SMN protein in CNS tissues” value is on record as “no statistically significant effect” and the snRNP assembly entry is listed as “nor did it have any statistically significant effect”.
Turning to `CC(C)c1cc(C(=O)Nc2ccc(F)c(Cl)c2)no1` [LDN-75654], the “effect on SMN2-driven firefly luciferase activity” value in series [4] is recorded as “strong positive effect”. Also, the “effect on CMV-driven Renilla luciferase activity” value in series [1] is recorded as “much weaker”.
With `N#Cc1cc(F)cc(OCc2cccc3nc(N)nc(N)c23)c1` [PF-06738066], in the series on Smn protein [5], the “Smn protein levels in muscle” value was “small but significant increase in muscle” and the “Smn protein levels in spinal cord” value is given as “significant decrease in spinal cord”. The “effect on CMV-driven Renilla luciferase activity” value in [1] is “strong effect”. For the same molecule, the “free drug levels in brain lower than in plasma” value in series [6] (2B/- SMA pups, P13, 10 mg/kg i.p.) is reported as 3–4 fold. The molecule also displayed a concentration at 12 h in series [6] (FVB/N background, mouse, brain, intraperitoneal, 10 mg/kg) of approximately 7 nM. Moreover, the “drug exposures in SMA pups compared to healthy littermates” value in [6] (P13, 10 mg/kg i.p.) is reported as “somewhat higher in SMA pups”. Also, the “effect on survival of SMA mice compared to vehicle-treated SMA mice” value in the series with 2B/- SMA mice [7] was “statistically significant beneficial effect on survival”. The molecule also had a concentration at 12 h in series [8] of 184 ± 76 nM. Also, in [9] (FVB/N mice, 30mpk IP), the “Cave,u Brain” value is recorded as 63 nM, the “Cave,u CSF” value turned out to be 47 nM and the “Cave,u Plasma” value worked out at 173 nM. For the same molecule, in series [9] (setting [14]), the brain penetration entry was “moderate brain penetration”; the “free drug levels in brain and CSF lower than in plasma” value is “approximately 2.5 fold”. The “simultaneous pass rate, 55° negative geotaxis and climb test” value in the series on 2B/- SMA mice [10] (2B/- SMA mice at P16, combined sexes) is on record as “about 78%”. Besides, in the series with 2B/- SMA mice [10] (setting [15]), the “improvement in ability to pass the combined assay over vehicle SMA mice” value was approximately 40% and the “statistical significance of improvement over vehicle SMA mice in combined test” value was “showed improvement over vehicle SMA mice that did not reach statistical significance”. Moreover, the “Smn exons 7/8 in spinal cord” value in [11] (2B/+ control mice) is given as “significant decrease”. Moreover, the “Smn transcripts (exons 5/6, exons 7/8, SmnΔ7) in tissues” value in [11] (2B/- SMA mice, P4-P16 BID i.p.) is recorded as “significant increases in Smn transcripts in all tissues”. In [12], the “changes in SMN transcripts” value was “modest changes in SMN transcripts”.
For the molecule `Cc1cc(OCC2CCN(Cc3c(Cl)cccc3Cl)CC2)c2c(N)nc(N)nc2c1` [PF-06802336], in series [4], the “effect on SMN2-driven firefly luciferase activity” value was “no effect”. Also, the “effect on CMV-driven Renilla luciferase activity” value in [1] is “no effect”. In the series with N2a cells (24 hours), the “genes down-regulated by compound (P < 0.05)” value is 3 genes and the “genes upregulated by compound (P < 0.05)” value was 4 genes. For the same molecule, in the series on N2a cells (24 hours, 18,409 detectable genes), the “genes differentially expressed compared to DMSO (P < 0.05)” value came to 7 genes.
Take `Cc1cc(COc2cc(F)cc(C#N)c2)c2c(N)nc(N)nc2c1` [PF-06832344]: the half-maximal inhibitory concentration (IC50) (usually the concentration needed to halve the response being measured) at recombinant human DcpS is more than 10 µM.
In the case of `CCN1CCN(c2ccc3cc(-c4cn5cc(C)nc(C)c5n4)c(=O)oc3c2)C[C@@H]1C` [SMN-C2], the “effect on SMN2-driven firefly luciferase activity” value in series [4] is “strong positive effect”. Further, the “effect on CMV-driven Renilla luciferase activity” value in [1] is listed as “no effect”. Further, the SMN protein result with SMN protein [13] is “positive SMN response”.
